According to patent US8633245B2, “PAI-1 inhibitor” (Institute of Medicinal Molecular Design, Inc., priority 2008, dated 2014):

Target: T1, recombinant human PAI-1 (Homo sapiens, UniProt P05121)
T1 construct: purchased Molecular Innovations, Inc
Assay: Test Example 1: human PAI-1 inhibitory activity (tPA fluorogenic substrate, pH 7.5 Tris buffer)
Type: biochemical
Settings: Tris buffer
Method: 50 mM Tris, 150 mM NaCl, 10 μg/ml BSA, 0.01% Tween80 (SIGMA-ALDRICH Corporation)

T1 sequence (P05121 24-402): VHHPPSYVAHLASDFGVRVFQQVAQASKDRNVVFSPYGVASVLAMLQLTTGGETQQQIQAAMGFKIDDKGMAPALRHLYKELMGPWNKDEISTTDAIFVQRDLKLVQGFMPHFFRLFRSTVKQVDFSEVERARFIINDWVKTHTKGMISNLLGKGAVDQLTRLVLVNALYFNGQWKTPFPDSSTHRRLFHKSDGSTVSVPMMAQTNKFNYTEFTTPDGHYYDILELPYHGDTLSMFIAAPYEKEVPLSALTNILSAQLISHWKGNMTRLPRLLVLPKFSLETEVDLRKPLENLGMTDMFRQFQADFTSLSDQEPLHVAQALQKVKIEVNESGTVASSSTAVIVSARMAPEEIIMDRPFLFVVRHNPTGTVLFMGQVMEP

SMILES	Inhibition Rate of PAI-1 Activity (%) (Compound Concentration 5 μM)	Inhibition Rate of PAI-1 Activity (%) (Compound Concentration 10 μM)	Inhibition Rate of PAI-1 Activity (%) (Compound Concentration 25 μM)
CC(C)(C)c1ccc(-c2ccc(OCc3ccc(OC(F)(F)F)cc3)c(CCC(=O)O)c2)cc1 [Compound 52]	28	64	94
O=C(O)CCc1cc(-c2ccccc2)ccc1OCc1ccc(OC(F)(F)F)cc1 [Compound 53]	19	32	74
COc1ccccc1-c1ccc(OCc2ccc(C(C)(C)C)cc2)c(/C=C/C(=O)O)c1 [Compound 55]	21	46	95
COc1ccccc1-c1ccc(OCc2ccc(C(C)(C)C)cc2)c(CCC(=O)O)c1 [Compound 56]	22	47	91
O=C(O)/C=C/c1cc(-c2ccc(OC(F)(F)F)cc2)ccc1OCc1cccc(C(F)(F)F)c1 [Compound 57]	24	53	82
O=C(O)CCc1cc(-c2ccc(OC(F)(F)F)cc2)ccc1OCc1cccc(C(F)(F)F)c1 [Compound 58]	22	53	97
Cc1cc(C)cc(COc2ccc(-c3ccc(OC(F)(F)F)cc3)cc2CCC(=O)O)c1 [Compound 59]	25	53	77
COc1ccc(COc2ccc(-c3ccc(OC(F)(F)F)cc3)cc2CCC(=O)O)cc1 [Compound 60]	15	35	25
Cc1ccc(COc2ccc(-c3ccc(OC(F)(F)F)cc3)cc2CCC(=O)O)cc1 [Compound 61]	21	48	97
O=C(O)CCc1cc(-c2ccc(OC(F)(F)F)cc2)ccc1OCc1ccc(OC(F)(F)F)cc1 [Compound 62]	29	62	99
CC(C)(C)c1ccc(COc2ccc(-c3cccc(OC(F)(F)F)c3)cc2/C=C/C(=O)O)cc1 [Compound 63]	38	72	93
CC(C)(C)c1ccc(COc2ccc(-c3cccc(OC(F)(F)F)c3)cc2CCC(=O)O)cc1 [Compound 64]	49	74	95
CC(C)(C)c1ccc(COc2ccc(-c3ccccc3OC(F)(F)F)cc2/C=C/C(=O)O)cc1 [Compound 65]	42	72	93
CC(C)(C)c1ccc(COc2ccc(-c3ccccc3OC(F)(F)F)cc2CCC(=O)O)cc1 [Compound 66]	52	80	>99
CC(C)(C)c1ccc(-c2ccc(OCc3ccccc3OC(F)(F)F)c(CCC(=O)O)c2)cc1 [Compound 67]	37	70	94
CC(C)(C)c1ccc(-c2ccc(OCc3cccc(OC(F)(F)F)c3)c(CCC(=O)O)c2)cc1 [Compound 68]	40	74	95
CC(C)(C)c1ccc(-c2ccc(OCc3ccc(C(F)(F)F)cc3)c(CCC(=O)O)c2)cc1 [Compound 70]	47	71	95
CCCCc1ccc(COc2ccc(-c3ccc(C(C)(C)C)cc3)cc2CCC(=O)O)cc1 [Compound 71]	51	80	93
CC(C)c1ccc(Oc2ccc(/C=C/C(=O)O)c(Oc3ccc(C(C)C)cc3)c2)cc1 [Compound 72]	32	72	98
CC(C)c1ccc(Oc2ccc(/C=C\C(=O)O)c(Oc3ccc(C(C)C)cc3)c2)cc1 [Compound 74]	13	53	96
CC(C)(C)c1ccc(COc2cc(-c3ccc(OC(F)(F)F)cc3)ccc2/C=C/C(=O)O)cc1 [Compound 75]	25	53	91
CC(C)(C)c1ccc(COc2cc(Oc3ccc(OC(F)(F)F)cc3)ccc2/C=C/C(=O)O)cc1 [Compound 77]	27	51	73

SMILES	Inhibition Rate of PAI-1 Activity (%) (Compound Concentration 5 μM)	Inhibition Rate of PAI-1 Activity (%) (Compound Concentration 10 μM)	Inhibition Rate of PAI-1 Activity (%) (Compound Concentration 25 μM)
CC(C)(C)c1ccc(Oc2cc(-c3ccc(OC(F)(F)F)cc3)ccc2/C=C/C(=O)O)cc1 [Compound 79]	39	84	90
COc1cc(-c2ccc(OC(F)(F)F)cc2)cc(/C=C/C(=O)O)c1OCc1ccc(C(C)(C)C)cc1 [Compound 81]	28	63	70
COc1cc(-c2ccc(OC(F)(F)F)cc2)cc(CCC(=O)O)c1OCc1ccc(C(C)(C)C)cc1 [Compound 82]	26	59	98
Cc1cc(-c2ccc(OC(F)(F)F)cc2)cc(/C=C/C(=O)O)c1OCc1ccc(C(C)(C)C)cc1 [Compound 83]	27	46	56
Cc1cc(-c2ccc(OC(F)(F)F)cc2)cc(CCC(=O)O)c1OCc1ccc(C(C)(C)C)cc1 [Compound 84]	28	62	95
CC(C)(C)c1ccc(COc2cccc(Oc3ccc(OC(F)(F)F)cc3)c2/C=C/C(=O)O)cc1 [Compound 85]	40	61	85
CC(C)(C)c1ccc(COc2c(/C=C/C(=O)O)cccc2-c2ccc(OC(F)(F)F)cc2)cc1 [Compound 87]	44	81	96
CC(C)(C)c1ccc(Oc2cc(Oc3ccc(OC(F)(F)F)cc3)ccc2/C=C/C(=O)O)cc1 [Compound 89]	46	87	95
CC(C)(C)c1ccc(COc2c(Cl)cc(-c3ccc(OC(F)(F)F)cc3)cc2C=CC(=O)O)cc1 [Compound 91]	30	67	96
CC(C)(C)c1ccc(COc2c(Cl)cc(-c3ccc(OC(F)(F)F)cc3)cc2CCC(=O)O)cc1 [Compound 92]	25	63	97
CC(C)(C)c1ccc(Oc2cccc(-c3ccc(OC(F)(F)F)cc3)c2C=CC(=O)O)cc1 [Compound 93]	51	87	94
CC(C)(C)c1ccc(COc2ccc(Oc3ccc(OC(F)(F)F)cc3)cc2C=CC(=O)O)cc1 [Compound 95]	28	77	96
O=C(O)C=Cc1c(Oc2ccc(OC(F)(F)F)cc2)cccc1Oc1ccc(OC(F)(F)F)cc1 [Compound 97]	30	40	53
CC(C)(C)c1ccc(Oc2ccc(Oc3ccc(OC(F)(F)F)cc3)cc2C=CC(=O)O)cc1 [Compound 99]	31	66	99
O=C(O)CCc1cc(-c2ccc(OC(F)(F)F)cc2)ccc1OCCCc1ccccc1 [Compound 101]	42	73	>99
O=C(O)CCc1cc(-c2ccc(OC(F)(F)F)cc2)ccc1OCCCOc1ccccc1 [Compound 103]	33	57	89
O=C(O)CCc1cc(-c2ccc(OC(F)(F)F)cc2)ccc1OCCCCCc1ccccc1 [Compound 104]	47	77	96
CC(C)(C)c1ccc(COc2ccc(-c3ccc(OC(F)(F)F)cc3)cc2COCC(=O)O)cc1 [Compound 107]	48	85	97
CC(C)(C)c1ccc(COc2ccc(-c3ccc(OC(F)(F)F)cc3)cc2OCCCC(=O)O)cc1 [Compound 109]	24	50	96
CC(C)(Oc1ccc(-c2ccc(OC(F)(F)F)cc2)cc1Oc1ccc(C(C)(C)C)cc1)C(=O)O [Compound 110]	37	51	83
CC(C)(OCc1ccc(-c2ccc(OC(F)(F)F)cc2)cc1Oc1ccc(C(C)(C)C)cc1)C(=O)O [Compound 111]	55	88	94
